Legend:
[1] = tested on: AMPK and ACC phosphorylation; assay: Immunoblot of AMPK and ACC phosphorylation, MCT1-null KBM7 cells; assay type: cell-based, human; conditions: 50 μM 3-BrPA
Method: Briefly, cells were rinsed twice in ice-cold PBS and harvested in a standard lysis buffer containing 50 mM Hepes, pH 7.4, 40 mM NaCl, 2 mM EDTA, 1.5 mM orthovanadate, 50 mM NaF, 10 mM pyrophosphate, 10 mM glycerophosphate, protease inhibitors (Roche) and 1% Triton-X-100. Proteins from total lysates were resolved by 8-12% SDS-PAGE, and analyzed by immunoblotting as described using anti-MCT1 (Millipore; Ab3540), anti-RPS6 and anti-raptor antibodies (1:1000)^50. For quantitation, ImageJ software was used and the signals were normalized using an equal loading control (RPS6/Raptor). Immunohistochemistry was performed on formalin-fixed paraffin embedded sections using a boiling Dako antigen retrieval method (Dako). A 1:500 dilution of the anti-MCT1 antibody was used for staining.

SK-BR-3 cells = assay: Cell survival assay, SK-BR-3; assay type: cell-based, human
Method: (§1) Cell lines (5,000-20,000) were seeded in 96-well plates and treated with indicated amounts of 3-BrPA. After 3 days of treatment, CellTiter-Glo (Promega) and/or CyQuant (Invitrogen) were used to measure survival percentage for each concentration compared to untreated cells. FACS analysis with Annexin V and 7AAD staining was performed according to manufacturer's manual (BD Pharmingen).
(§2) 15 cell lines (BT-474, BT-549, CAK1-1, CAL-51, HCC-70, HS578T, JURKAT, MDA-MB-157, MDA-MB-231, MDA-MB-453, MDA-MB-468, PC-3, SK-BR-3, T47D, ZR-75-1) were treated with 3-BrPA (0-300 μM). After 3 days, cell viability was quantified via CellTiter-Glo assay and an IC50 from the resulting dose-response curve was interpolated using a nonlinear regression model. Transcriptome-wide normalized mRNA levels from gene expression profiling experiments performed on the Affymetrix Human Genome U133 Plus 2.0 chip were obtained from the CCLE for all 15 cell lines. The mRNA expression pattern across all 15 samples for each of the genes was then correlated with the IC50 values. Similar correlation analysis was performed using OCR/ECAR values for each cell line.

BT-20 cells = assay: Cell survival assay, BT-20; assay type: cell-based, human
Method: as §1

MCT1-null KBM7 cells = assay: Cell survival assay, MCT1-null KBM7 clones; assay type: cell-based, human
Method: A haploid cell genetic screen with 3-BrPA was performed using 100 million mutagenized KBM7 cells as described previously^29. Mutagenized haploid KBM-7 cells were exposed to 50 μM 3-BrPA for 3 weeks. Surviving clones were harvested and genomic DNA was isolated and insertions were amplified. The sequences flanking retroviral insertion sites were mapped to the human genome using inverse PCR followed by Ilium in a sequencing. Genomic regions with a high density of insertions were identified using the proximity index for a given insertion. Additionally, the statistical enrichment of insertions at a given locus in the selected population was calculated by comparing the number of inactivating insertions to those in the untreated control dataset via a Fisher's Exact Test. Individual clones were isolated among 50 different clones and genomic DNA for individually selected clones were isolated using a genomic DNA isolation kit (Qiagen). Genomic insertions were identified by inverse PCR and subsequent sequencing as described previously^24.
Cell lines (5,000-20,000) were seeded in 96-well plates and treated with indicated amounts of 3-BrPA. After 3 days of treatment, CellTiter-Glo (Promega) and/or CyQuant (Invitrogen) were used to measure survival percentage for each concentration compared to untreated cells. […]

MT-3 cells = assay: Cell survival assay, MT-3; assay type: cell-based, human; conditions: MT-3, increased MCT1 level
Method: as §1

MCT1 = molecular target: T1, MCT1 (Homo sapiens, UniProt P53985); assay: 14C-3-BrPA uptake assay, wild type KBM7 cells; assay type: cell-based
T1 construct: endogenous in cells; host or cells: wild type KBM7 cells (near-haploid human cell line)
T1 sequence (P53985 1-500): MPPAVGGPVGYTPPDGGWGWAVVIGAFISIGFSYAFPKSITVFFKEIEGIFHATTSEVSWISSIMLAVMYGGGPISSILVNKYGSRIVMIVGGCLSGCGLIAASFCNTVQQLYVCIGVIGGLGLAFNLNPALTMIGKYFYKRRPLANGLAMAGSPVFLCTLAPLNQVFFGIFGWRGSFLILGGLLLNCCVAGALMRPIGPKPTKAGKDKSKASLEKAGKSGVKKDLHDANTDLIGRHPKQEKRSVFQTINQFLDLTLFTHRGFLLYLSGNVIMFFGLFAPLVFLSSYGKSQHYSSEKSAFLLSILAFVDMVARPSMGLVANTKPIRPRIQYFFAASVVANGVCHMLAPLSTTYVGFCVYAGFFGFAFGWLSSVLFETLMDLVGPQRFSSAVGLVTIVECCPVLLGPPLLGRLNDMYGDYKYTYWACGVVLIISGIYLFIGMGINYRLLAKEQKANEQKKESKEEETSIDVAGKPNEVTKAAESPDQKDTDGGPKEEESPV
T1 sequence (P35613 140-385 partner limits assumed): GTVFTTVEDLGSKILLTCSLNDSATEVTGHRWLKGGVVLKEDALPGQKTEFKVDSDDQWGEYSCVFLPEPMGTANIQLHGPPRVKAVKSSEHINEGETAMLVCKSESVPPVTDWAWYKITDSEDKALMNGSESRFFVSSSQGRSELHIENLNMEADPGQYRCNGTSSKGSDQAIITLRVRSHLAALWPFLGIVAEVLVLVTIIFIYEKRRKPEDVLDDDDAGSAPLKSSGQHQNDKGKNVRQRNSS
Method: Wild type KBM7 or MCT1-null cells were seeded in HBSS and exposed for up to 20 minutes to 100 μM ^14C-labeled 3-BrPA (6.8 mCi/mmole) (Moravek) with or without competitor molecules like 3-BrPA, Pyruvate, L-Lactate and D-Lactate. Cells were washed with cold HBSS, lysed in a NaOH buffer, and uptake measured using a liquid scintillation counter.

MDA-MB-231 cells = assay: Cell survival assay, MDA-MB-231; assay type: cell-based, human
Method: as §1, §2

HCC-70 cells = assay: Cell survival assay, HCC-70; assay type: cell-based, human; conditions: HCC-70, increased MCT1 level
Method: as §1, §2

O=C(O)C(=O)CBr [3-BrPA, 3-bromopyruvic acid]
AMPK and ACC phosphorylation, markers of energy stress [1]: did not affect | sensitivity to 3-BrPA (SK-BR-3 cells; SK-BR-3, low MCT1 level): resistant | sensitivity to 3-BrPA with stable expression of MCT1 (SK-BR-3 cells; SK-BR-3 stably expressing MCT1 cDNA): sufficient to sensitize | sensitivity to 3-BrPA (BT-20 cells; BT-20, increased MCT1 level): sensitive | sensitivity to 3-BrPA with partial suppression of MCT1 by RNAi (BT-20 cells; BT-20 expressing shRNAs targeting MCT1): sufficient to confer resistance | sensitivity to 3-BrPA after re-expression of MCT1 (MCT1-null KBM7 cells; MCT1-null KBM7 cells with exogenous MCT1): nearly completely restored their sensitivity | resistance to 3-BrPA (MCT1-null KBM7 cells; MCT1-null KBM7 clones (Clone A and B), 50 μM, 3 days): completely resistant | sensitivity to 3-BrPA (MT-3 cells): sensitive | 3-BrPA uptake on reduction in extracellular pH (MCT1; wild type KBM7, radiolabeled 3-BrPA, 20 minutes): enhanced | competition with the uptake of radiolabeled 3-BrPA (MCT1; wild type KBM7 in HBSS, up to 20 minutes, unlabeled competitor): effectively competed | sensitivity to 3-BrPA (MDA-MB-231 cells; MDA-MB-231, low MCT1 level): resistant | sensitivity to 3-BrPA with stable expression of MCT1 (MDA-MB-231 cells; MDA-MB-231 stably expressing MCT1 cDNA): sufficient to sensitize | sensitivity to 3-BrPA (HCC-70 cells): sensitive

Source: patent publication US20140142180A1, “METHODS OF TREATING TUMORS HAVING ELEVATED MCT1 EXPRESSION” (Whitehead Institute for Biomedical Research, priority 2012, published 2014)
